The subject of data set [1] is AP-1. In words: AP-1 luciferase reporter cellular assay (293/AP1-luc, PMA-stimulated). The settings on record: for activity in the AP-1 cellular assay (screen): 15 μM, compared with curcumin; for IC50: Homo sapiens, inhibition of PMA-induced AP-1 activation, 293/AP1-luc cells, Table 10, read-out: AP-1 IC50. Type of data set: cell-based, human. The protocol:
This cell line is obtained by co-transfection of pAP1-luc and pTK-hyg containing plasmids followed by the addition of hygromycin (200 μg/ml) to maintain cell selection.
After 24 hr, the cells had reached approximately 60% confluency. […] Plate wells were gently washed with PBS, pH 7.4, and lysed with passive lysis buffer (1×, 100 μl, Promega). The subsequent chemiluminescent lysates were analyzed with the Luciferase Assay System (Promega) utilizing a TD-20/20 luminometer. The relative light units (photons) were determined by the addition of firefly luciferase substrate (75 μl) to cell lysate (10 μl). The light units were then normalized to the amount of protein in the well (mg/ml) with BCA™ Protein Assay Kit (Pierce) and standardized to percent of control (PMA).
This cell line is stably transfected with a luciferase reporter controlled by an AP-1 dependent promoter. The cell is stimulated with phorbol ester which activates AP-1. AP-1 then binds to one of three promoter regions on the cells DNA leading to the production of a luciferase enzyme. Luciferin is added to the cell lysates and the luciferase enzyme catalyzes a cleavage of luciferin leading to the emission of light.
A general note: A reporter such as luciferase makes a cellular process visible.

In data set [2] the target is glutathione S-transferase P1-1 (Homo sapiens (Human), UniProt P09211). In words: GSTP1-1 enzyme inhibition assay (CDNB/GSH, 340 nm). Type of data set: biochemical. Particulars: 1 mM CDNB, 1 mM GSH, pH 6.5; compared with curcumin. The protocol: Kinetic analysis assays were conducted. […] GSTP1-1 activity was measured at pH 6.5 in 1 ml volumes of 20 mM potassium phosphate buffer containing 100 mM NaCl, 1 mM CDNB and 1 mM GSH. […] (Perkin/Elmer Lambda 2S spectrophotometer). These activities were plotted as percent of control (GSTP1-1 activity without inhibitors). Kinetic analysis (dissociation constants) of inhibitors was determined by linear regression analysis of the Dixon, plots. […] Ki's were calculated utilizing SigmaPlot's Enzyme Kinetics Module™ (Chicago, Ill., USA). […]
These activities were plotted as percent of control (GSTP1-1 activity without inhibitors).

Data set [3] is described as follows: Reactivity toward L-cysteine as nucleophile (absorbance 425 nm). It counts as physicochemical. The settings on record: 1 mM L-cysteine in sodium phosphate buffer, pH 7; read-out: t1/2 of absorbance quenching by L-cysteine. As to the method: Natural log values were determined based on 1st order kinetics.
Weber et al., (2005) Bioorg Med Chem 13, 3811-3820. These groups potentially serve as Michael acceptors which are chemically reactive and can form undesirable covalent modifications with biomolecules. Michael acceptors are generally thought to be poor drug compounds because of their high reactivity toward nucleophilies.
These groups potentially serve as Michael acceptors which are a chemically reactive species that can form undesirable covalent modifications with binding targets. […] Michael acceptors are generally thought to be poor drug compounds because of their high reactivity toward nucleophiles. […] In addition, at or below neutral pH, primary amino groups are predominantly in their protonated form and therefore weak nucleophiles that are unlikely to react to any significant extent with curcumin.

Data set [4] addresses Aβ oligomers and fibrils (Homo sapiens (Human), UniProt P05067). The settings on record: cited from earlier work.
Data set [5] relates to NF-κB. In words: NF-κB luciferase reporter cellular assay (293T/NF-κB-luc, TNFα-stimulated). Type of data set: cell-based, human. The settings on record: for inhibition of the activation of NF-κB by TNFα (screen): 10 μM, compared with curcumin; for IC50: Homo sapiens, HEK-293T, inhibition of TNFα-induced NF-κB activation. The protocol:
The cell line is derived from human 293T embryonic kidney cells expressing the large T antigen containing a chromosomal integration of a luciferase reporter construct regulated by 6 copies of the NF-κB response element (Panomics, Inc.). This stable clonal cell line is obtained by co-transfection of pNF-κB-luc and pTK-hyg containing plasmids followed by the addition of hygromycin (200 μg/ml) to maintain cell selection.
The cell line was grown in a humidified atmosphere at 37° C. in 5% CO2/95% air and maintained in Dulbecco's Modified Eagle's Medium (DMEM-high glucose containing 4 mM glutamine) containing fetal bovine serum (FBS, 10%), sodium pyruvate (1 mM), penicillin (100 units/ml), streptomycin (100 μg/ml) and hygromycin (100 μg/m) to maintain cell selection (Gibco/Invitrogen).
The 293T/NF-κB-luc cells were re-plated 24 hr prior to treatment, into 24-well cell culture plates in media without hygromycin, to prevent it from interfering with the assay. The cells were then allowed to grow and attach, to the wells, for 24 hr in a humidified atmosphere at 37° C. in 5% CO2/95% air. […] The cells then were placed again in a humidified atmosphere at 37° C. in 5% CO2/95% air for 7 hr. Plate wells were gently washed with PBS, pH 7.4, and lysed with passive lysis buffer (1×, 100 μl, Promega). The subsequent chemiluminescent lysates were analyzed with the Luciferase Assay System (Promega) utilizing a TD-20/20 luminometer. The relative light units (photons) were determined by the addition of firefly luciferase substrate (75 μl) to cell lysate (10 μl). The light units were then normalized to the amount of protein in the well (mg/ml) with BCA™ Protein Assay Kit (Pierce) and standardized to percent of control (TNFα).
This assay utilized a commercially available cell line (Panomics 293T-luc cellular assay) developed for screening inhibitors of NF-κB. This cell line is stably transfected with a luciferase reporter controlled by an NF-κB dependent promoter. The cell is stimulated with tumor necrosis factor alpha (TNFα) which activates NF-κB. NF-κB then binds to one of six promoter regions on the cell's DNA leading to the production of a luciferase enzyme. Luciferin is added to the cell lysates and the luciferase enzyme catalyzes a cleavage of luciferin leading to the emission of light.
This cell line was developed by Panomics for screening potential inhibitors of NF-κB. Cells are stimulated with TNF-α to express luciferase, whose activity is monitored in a chemiluminometer.
An NF-κB reporter stable cell line from human 293T embryonic kidney cells (293T/NFκB-luc) (Panomics) was grown in a humidified atmosphere at 37° C. in 5% CO2/95% air. The cells were maintained in Dulbecco's Modified Eagle's Medium (DMEM—high glucose containing 4 mM glutamine) supplemented with 10% fetal bovine serum (FBS), 1 mM sodium pyruvate, 100 units/ml penicillin, 100 μg/m streptomycin and 100 μg/ml hygromycin (Gibco/Invitrogen, Carlsbad, Calif.)) to maintain cell selection. One day prior to treatment, the 293T/NFκB-luc cells were plated into 24-well cell culture plates (Costar) at approximately 70% confluency in the above media without hygromycin. The following day cells were fed fresh media 1 hour prior to treatment. […] The cells were placed again in a humidified atmosphere at 37° C. in 5% CO2/95% air for 7 hours. Plate wells were gently washed with phosphate buffered saline, pH 7.4, and lysed with 1× passive lysis buffer (Promega). The subsequent lysates were analyzed with the Luciferase Assay System (Promega) utilizing a TD-20/20 luminometer (Turner Designs). The firefly luciferase relative light units were normalized to protein (mg/ml) with BCATM Protein Assay Kit (Pierce) and standardized to TNF-α control.

This is an account of results in US9187397B2 (STC.UNM, priority 2004, dated 2015).

Read-outs that look alike come from different tables or passages of the source.

Sequence of glutathione S-transferase P1-1 (P09211 2-210): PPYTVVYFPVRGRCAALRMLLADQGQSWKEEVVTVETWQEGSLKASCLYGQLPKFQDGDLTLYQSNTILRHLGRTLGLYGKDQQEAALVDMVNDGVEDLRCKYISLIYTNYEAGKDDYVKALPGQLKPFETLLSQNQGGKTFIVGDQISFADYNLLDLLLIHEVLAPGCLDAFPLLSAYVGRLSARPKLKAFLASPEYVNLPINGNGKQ
Sequence of Aβ oligomers and fibrils (P05067 672-711): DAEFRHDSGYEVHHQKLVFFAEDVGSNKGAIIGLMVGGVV

In the case of `O=C(/C=C/c1ccccc1)/C(Cc1ccccc1)=C(O)/C=C/c1ccccc1` [9b], the “activity in the AP-1 cellular assay (screen)” value (from here on “activity … (screen)”) in data set [1] is reported as “active”. In addition, the “activity in the GSTP1-1 screening assay” value in data set [2] is reported as “more active than curcumin”.
Consider `O=C(/C=C/c1ccccc1Cl)/C=C/c1ccccc1Cl` [20z], for which the “activity in the GSTP1-1 screening assay” value in data set [2] is “better inhibitory activity than curcumin”.
As for `COc1cc(/C=C/C(=O)/C=C(O)/C=C/c2ccc(O)c(OC)c2)ccc1O` [analog 3a, 1,7-Bis(4-hydroxy-3-methoxyphenyl)-1,6-heptadiene-3,5-dione], the half-life at 20 μM in data set [3] amounted to 7.2 min. In data set [4] (in vitro), the “IC50 for disaggregation of preformed fibrils” value is 1.0 µM and the “IC50 for fibril inhibition” value was 0.8 µM. The “IC50 for Aβ oligomerization reported by Yang, et al.” value in data set [4] (non-biotinylated Aβ(1-40)) is approximately 1 µM.
`O=C(/C=C/c1ccncc1)/C=C/c1ccncc1` [compound 29]: in data set [5], the “inhibition of the activation of NF-κB by TNFα (screen)” value is on record as “more active than curcumin”. Also, in data set [1], the “activity … (screen)” value was “more active than curcumin” and the IC50 turned out to be 8.2 µM. Also, the “activity in the GSTP1-1 screening assay” value in data set [2] is recorded as “better inhibitory activity than curcumin”.
Turning to `O=C(/C=C/c1cccnc1)/C=C/c1cccnc1` [compound 31], the “inhibition of the activation of NF-κB by TNFα (screen)” value in data set [5] is given as “more active than curcumin”. Further, the IC50 in data set [5] (293T/NF-κB-luc cells, Table 5, read-out: IC50) was 3.4 µM; in data set [5] (Table 10, read-out: NF-κB IC50), 3.4 µM; in data set [1], 4.1 µM. In addition, the “activity … (screen)” value in data set [1] was “more active than curcumin”. The “activity in the GSTP1-1 screening assay” value in data set [2] is “better inhibitory activity than curcumin”.

What is called IC50 is the midpoint of a concentration-inhibition curve.
